Source: paper PMC6272913, “Synthesis of Bioactive 2-(Arylamino)thiazolo[5,4-f]-quinazolin-9-ones via the Hügershoff Reaction or Cu- Catalyzed Intramolecular C-S Bond Formation” (Molecules, 2016)
Values joined by “and” are separate entries in the source; they are usually repeats but may differ in a detail not shown here. Equal values may be shown once. Read-outs that look alike come from different tables or passages of the source.

What was measured:
CDK5/p25 = target: T1, CDK5/p25 (Homo sapiens, UniProt Q00535); assay: CDK5/p25 in vitro kinase assay (histone H1, [γ-33P] ATP); type: biochemical
T1 construct: made in house
T1 sequence (Q00535 whole entry): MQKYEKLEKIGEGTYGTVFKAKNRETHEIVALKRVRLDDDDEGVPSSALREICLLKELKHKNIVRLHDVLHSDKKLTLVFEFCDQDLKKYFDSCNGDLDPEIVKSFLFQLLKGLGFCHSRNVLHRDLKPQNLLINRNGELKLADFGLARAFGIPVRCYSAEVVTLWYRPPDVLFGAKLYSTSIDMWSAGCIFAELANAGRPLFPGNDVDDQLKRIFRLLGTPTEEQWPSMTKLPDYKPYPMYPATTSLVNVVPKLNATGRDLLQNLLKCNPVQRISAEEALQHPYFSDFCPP
T1 sequence (Q15078 99-307 partner limits assumed): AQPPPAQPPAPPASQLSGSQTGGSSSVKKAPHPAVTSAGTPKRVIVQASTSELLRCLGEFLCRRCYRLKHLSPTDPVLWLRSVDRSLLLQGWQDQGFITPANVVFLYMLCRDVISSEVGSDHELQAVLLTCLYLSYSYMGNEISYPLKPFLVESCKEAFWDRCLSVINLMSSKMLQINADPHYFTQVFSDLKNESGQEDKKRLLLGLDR

CK1δ/ε = CK1δ/ε in vitro kinase assay (CK1-specific peptide substrate); type: biochemical, Porcine; conditions: 15 μM ATP, 30 min at 30 °C, triplicate; >10 = less than 50% inhibition at 10 µM
CLK1 = CLK1 (Homo sapiens, UniProt P49759); assay: CLK1 in vitro kinase assay (RS peptide); type: biochemical; conditions: 15 μM ATP, 30 min at 30 °C, triplicate; >10 = less than 50% inhibition at 10 µM
CLK1, sequence (P49759 whole entry): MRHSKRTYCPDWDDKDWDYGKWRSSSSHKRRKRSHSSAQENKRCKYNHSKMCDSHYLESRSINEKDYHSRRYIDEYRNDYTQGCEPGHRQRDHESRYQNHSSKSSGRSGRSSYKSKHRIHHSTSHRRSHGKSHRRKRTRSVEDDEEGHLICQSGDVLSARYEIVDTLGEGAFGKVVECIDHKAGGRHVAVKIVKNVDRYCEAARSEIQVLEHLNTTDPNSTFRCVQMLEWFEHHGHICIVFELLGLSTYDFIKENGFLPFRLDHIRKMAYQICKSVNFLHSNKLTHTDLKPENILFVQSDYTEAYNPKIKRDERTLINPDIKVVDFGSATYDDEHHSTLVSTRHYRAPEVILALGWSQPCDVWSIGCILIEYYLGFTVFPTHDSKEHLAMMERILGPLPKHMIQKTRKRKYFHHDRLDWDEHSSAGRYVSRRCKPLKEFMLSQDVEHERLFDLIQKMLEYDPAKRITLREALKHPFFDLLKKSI

DYRK1A = DYRK1A (Rattus norvegicus, UniProt Q63470); assay: DYRK1A in vitro kinase assay (Woodtide); type: biochemical; conditions: 15 μM ATP, 30 min at 30 °C, triplicate; >10 = less than 50% inhibition at 10 µM
GSK-3α/β = GSK-3α/β in vitro kinase assay (GS-1 peptide); type: biochemical, Porcine; conditions: 15 μM ATP, 30 min at 30 °C, triplicate; >10 = less than 50% inhibition at 10 µM
[1] = 15 μM ATP, 30 min at 30 °C, triplicate, >10 = less than 50% inhibition at 10 µM

Row | IC50 (CDK5/p25; [1]) [µM] | IC50 (CK1δ/ε) [µM] | IC50 (CLK1) | IC50 (DYRK1A) | IC50 (GSK-3α/β) [µM] | IC50 (CDK5/p25) [µM] | Compound
1 | > 10 | 1.9 | 0.38 µM | 0.14 µM | 0.23 |  | N=C(c1nc2ccc3ncn(C4CC4)c(=O)c3c2s1)N1CCOCC1 [Compound 17e, 8-Cyclopropyl-2-[imino(morpholino)methyl]thiazolo[5,4-f]quinazolin-9(8H)-one]
2 |  | > 10 | 1 µM | 0.67 µM | 0.4 | > 10 | N=C(NCc1ccccc1)c1nc2ccc3ncn(C4CC4)c(=O)c3c2s1 [Compound 17a, N-Benzyl-8-cyclopropyl-9-oxo-8,9-dihydrothiazolo[5,4-f]quinazoline-2-carboximidamide]
3 |  | > 10 | 0.29 µM | 4.4 µM | 1.1 | > 10 | CN(C)CC/N=C(\N)c1nc2ccc3ncn(C4CC4)c(=O)c3c2s1 [Compound 17b, (Z)-8-Cyclopropyl-N′-[2-(dimethylamino)ethyl]-9-oxo-8,9-dihydrothiazolo[5,4-f]quinazoline-2-carboximidamide]
4 |  | > 10 | 5.3 µM | > 10 µM | ≥ 10 | > 10 | O=c1c2c(ccc3nc(N4CCCCC4)sc32)ncn1C1CC1 [Compound 14e, 8-Cyclopropyl-2-(piperidin-1-yl)thiazolo[5,4-f]quinazolin-9(8H)-one]
5 |  | > 10 | 2.1 µM | 2.9 µM | 3.9 | > 10 | N/C(=N\CCN1CCCCC1)c1nc2ccc3ncn(C4CC4)c(=O)c3c2s1 [Compound 17d, (Z)-8-Cyclopropyl-9-oxo-N′-[2-(piperidin-1-yl)ethyl]-8,9-dihydrothiazolo[5,4-f]quinazoline-2-carboximidamide]
6 | > 10 | > 10 | > 10 µM | > 10 µM | ≥ 10 |  | 8-Cyclopropyl-2-(piperidin-1-yl)thiazolo[5,4-f]quinazolin-9(8H)-one [Compound 14f]
7 |  | > 10 | > 10 µM | > 10 µM | ≥ 10 | > 10 | CN(C)CCNc1nc2ccc3ncn(C4CC4)c(=O)c3c2s1 [Compound 14b, 8-Cyclopropyl-2-([2-(dimethylamino)ethyl]amino)thiazolo[5,4-f]quinazolin-9(8H)-one]
8 |  | > 10 | 2.3 µM | 3.2 µM | 2.8 | > 10 | N/C(=N\CCN1CCOCC1)c1nc2ccc3ncn(C4CC4)c(=O)c3c2s1 [Compound 17c, (Z)-8-Cyclopropyl-N′-(2-morpholinoethyl)-9-oxo-8,9-dihydrothiazolo[5,4-f]quinazoline-2-carboximidamide]
9 | > 10 | > 10 | 0.61 µM | 0.82 µM | 0.49 |  | N=C(c1nc2ccc3ncn(C4CC4)c(=O)c3c2s1)N1CCCCC1 [Compound 17f, 8-Cyclopropyl-2-[imino(piperidin-1-yl)methyl]thiazolo[5,4-f]quinazolin-9(8H)-one]
10 |  | > 10 | > 10 µM | > 10 µM | ≥ 10 | > 10 | COc1cc2nc(Nc3ccc4ncn(C5CC5)c(=O)c4c3)sc2cc1OC [Compound 10l, 3-Cyclopropyl-6-((5,6-dimethoxybenzo[d]thiazol-2-yl)amino)quinazolin-4(3H)-one]
11 |  | > 10 | 1.7 µM | > 10 µM | ≥ 10 | > 10 | O=c1c2c(ccc3nc(Nc4cccnc4)sc32)ncn1C1CC1 [Compound 8g, 8-Cyclopropyl-2-(pyridin-3-ylamino)thiazolo[5,4-f]quinazolin-9(8H)-one]
12 |  | > 10 | 1.3 to 7.3 µM and 1.3 µM | 1.3 to 7.3 µM and 2 µM |  | > 10 | CN(C)c1ccc(Nc2nc3ccc4ncn(C5CC5)c(=O)c4c3s2)cc1 [Compound 8j, 8-Cyclopropyl-2-([4-(dimethylamino)phenyl]amino)thiazolo[5,4-f]quinazolin-9(8H)-one]
13 |  | > 10 | 5.2 µM | 4.8 µM | ≥ 10 | > 10 | O=c1c2cc(Nc3nc4ccccc4s3)ccc2ncn1C1CC1 [Compound 10a, 3-Cyclopropyl-6-[(benzo[d]thiazol-2-yl)amino]quinazolin-4(3H)-one]
14 |  | > 10 | 3.4 µM | > 10 µM | ≥ 10 | > 10 | O=c1c2c(ccc3nc(Nc4ccccc4)sc32)ncn1C1CC1 [Compound 8a, 8-Cyclopropyl-2-(phenylamino)thiazolo[5,4-f]quinazolin-9(8H)-one]
15 |  | > 10 | 3.4 µM | > 10 µM | > 10 | > 10 | O=c1c2c(ccc3nc(NCc4ccccc4)sc32)ncn1C1CC1 [Compound 14a, 2-(Benzylamino)-8-cyclopropylthiazolo[5,4-f]quinazolin-9(8H)-one]
16 |  | > 10 | 8.1 µM | 8.2 µM | ≥ 10 | > 10 | O=c1c2c(ccc3nc(NCCN4CCOCC4)sc32)ncn1C1CC1 [Compound 14d, 8-Cyclopropyl-2-[(2-morpholinoethyl)amino]thiazolo[5,4-f]quinazolin-9(8H)-one]
17 | > 10 | > 10 | > 10 µM | > 10 µM | ≥ 10 |  | O=c1c2c(ccc3nc(NCCN4CCCCC4)sc32)ncn1C1CC1 [Compound 14c, 8-Cyclopropyl-2-([2-(piperidin-1-yl)ethyl]amino)thiazolo[5,4-f]quinazolin-9(8H)-one]

Row | Compound | IC50 (CDK5/p25; [1]) [µM] | IC50 (CK1δ/ε) [µM] | IC50 (CLK1) | IC50 (DYRK1A) | IC50 (GSK-3α/β) [µM] | IC50 (CDK5/p25) [µM]
18 | COc1ccc2c(c1)[nH]c1c(C)nccc12 [Harmine, reference compound] |  | 1.5 |  |  | > 10 | 
